Test results taken from patent US10703764B2, “Benzopiperazine compositions as BET bromodomain inhibitors” (FORMA Therapeutics, Inc., priority 2013, dated 2020).

How the values were obtained:
[1] = tested on: MV4-11 cells; assay: Oncology cell growth assay (3-day proliferation, CellTiter-Glo); assay type: cell-based; settings: Homo sapiens, MV4-11, 72 h, AML cell line MV4-11, 72 hours, compounds grouped by IC50 range, read-out: MV4-11 IC50 (inhibition of proliferation, gIC50)
Summary of the method: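 MV4-11 AML cells (RPMI 1640, 10% FBS) plated at 3000 cells/well and exposed 72 h to compound at final 10 to 0.0045 μM (3-fold series). Viability read by CellTiter-Glo luminescence; gIC50 from four-parameter logistic fit between DMSO control and no-cell background.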

[2] = target: T1, BRD4 BD2 (Homo sapiens, UniProt O60885); assay: AlphaScreen binding assay, BRD4 Bromodomain 2
T1 construct: made in house
Summary of the method: (§1)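 Compound dilution series were mixed with His-tagged BRD4 bromodomain and biotinylated tetra-acetylated H4 (1-21) peptide at pH 7.3 (BD1 and peptide at 50 nM, BD2 and peptide at 100 nM). Donor and acceptor beads were then added, and plates were equilibrated at least 1 h before reading. IC50 values were fitted with a four-parameter logistic model.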

[3] = target: T2, BRD4 BD1 (Homo sapiens, UniProt O60885); assay: AlphaScreen binding assay, BRD4 Bromodomain 1
T2 construct: made in house
Summary of the method: as §1

Row | IC50 [1] [µM] | IC50 [2] [µM] | IC50 [3] [µM] | SMILES
1 | > 0.5 | 0.05 to 0.5 | 1 to 10 | CC(=O)N1c2ccc(-c3ccc(N4CCCS4(=O)=O)c(F)c3)cc2N(C(=O)C2CCC2)C[C@@H]1C [Example I-1154]
2 | > 0.5 | 0.05 to 0.5 | 0.1 to 1 | CCOC(=O)N1C[C@H](C)N(C(C)=O)c2ccc(-c3ccc(N4CCCS4(=O)=O)c(F)c3)cc21 [Example I-1155]
3 | 0.1 to 0.5 | 0.05 to 0.5 | 0.1 to 1 | CC(=O)N1c2ccc(-c3ccc(N4CCCS4(=O)=O)c(F)c3)cc2N(C(=O)OC(C)C)C[C@@H]1C [Example I-1156]
4 | 0.1 to 0.5 | < 0.05 | 0.1 to 1 | CC(=O)N1c2ccc(-c3ccc4c(c3)CCCN4S(C)(=O)=O)cc2N(C(=O)C2CC2)C[C@@H]1C [Example I-1157]
5 | > 0.5 | 0.05 to 0.5 | 0.1 to 1 | CC(=O)N1c2ccc(-c3ccc4c(c3)CCCN4S(C)(=O)=O)cc2N(C(=O)C2CCC2)C[C@@H]1C [Example I-1158]
6 | 0.1 to 0.5 | 0.05 to 0.5 | 0.1 to 1 | CCOC(=O)N1C[C@H](C)N(C(C)=O)c2ccc(-c3ccc4c(c3)CCCN4S(C)(=O)=O)cc21 [Example I-1159]
7 | 0.1 to 0.5 | 0.05 to 0.5 | 0.1 to 1 | CC(=O)N1c2ccc(-c3ccc4c(c3)CCCN4S(C)(=O)=O)cc2N(C(=O)OC(C)C)C[C@@H]1C [Example I-1160]
8 | > 0.5 | 0.05 to 0.5 | 1 to 10 | CC(=O)N1c2ccc(-c3cccc(N4CCCS4(=O)=O)c3)cc2N(C(=O)C2CCC2)C[C@@H]1C [Example I-1161]
9 | > 0.5 | 0.05 to 0.5 | 0.1 to 1 | CCOC(=O)N1C[C@H](C)N(C(C)=O)c2ccc(-c3cccc(N4CCCS4(=O)=O)c3)cc21 [Example I-1162]
10 | > 0.5 | 0.05 to 0.5 | 1 to 10 | CCOC(=O)N1C[C@H](C)N(C(C)=O)c2ccc(-c3cc(N4CCCS4(=O)=O)cc(C(F)(F)F)c3)cc21 [Example I-1165]
11 | > 0.5 | 0.05 to 0.5 | 0.1 to 1 | CC(=O)N1c2ccc(-c3cc(N4CCCS4(=O)=O)cc(C(F)(F)F)c3)cc2N(C(=O)OC(C)C)C[C@@H]1C [Example I-1166]
12 | 0.1 to 0.5 | 0.05 to 0.5 | 0.1 to 1 | COc1ccc(-c2ccc3c(c2)N(C(=O)C2CC2)C[C@H](C)N3C(C)=O)cc1N1CCCS1(=O)=O [Example I-1167]
13 | 0.1 to 0.5 | 0.05 to 0.5 | 0.1 to 1 | COc1ccc(-c2ccc3c(c2)N(C(=O)C2CCC2)C[C@H](C)N3C(C)=O)cc1N1CCCS1(=O)=O [Example I-1168]
14 | 0.1 to 0.5 | 0.05 to 0.5 | 0.1 to 1 | CCOC(=O)N1C[C@H](C)N(C(C)=O)c2ccc(-c3ccc(OC)c(N4CCCS4(=O)=O)c3)cc21 [Example I-1169]
15 | 0.1 to 0.5 | 0.05 to 0.5 | 0.1 to 1 | COc1ccc(-c2ccc3c(c2)N(C(=O)OC(C)C)C[C@H](C)N3C(C)=O)cc1N1CCCS1(=O)=O [Example I-1170]
16 | 0.1 to 0.5 | 0.05 to 0.5 | 0.1 to 1 | CC(=O)N1c2ccc(-c3ccc(NS(C)(=O)=O)c(C)c3)cc2N(C(=O)C2CC2)C[C@@H]1C [Example I-1171]
17 | 0.1 to 0.5 | 0.05 to 0.5 | 0.1 to 1 | CC(=O)N1c2ccc(-c3ccc(NS(C)(=O)=O)c(C)c3)cc2N(C(=O)C2CCC2)C[C@@H]1C [Example I-1172]
18 | 0.1 to 0.5 | 0.05 to 0.5 | 0.1 to 1 | CCOC(=O)N1C[C@H](C)N(C(C)=O)c2ccc(-c3ccc(NS(C)(=O)=O)c(C)c3)cc21 [Example I-1173]
19 | 0.1 to 0.5 | 0.05 to 0.5 | 0.1 to 1 | CC(=O)N1c2ccc(-c3ccc(NS(C)(=O)=O)c(C)c3)cc2N(C(=O)OC(C)C)C[C@@H]1C [Example I-1174]
20 | > 0.5 | 0.05 to 0.5 | 0.1 to 1 | CC(=O)N1c2ccc(-c3ccc4c(c3)N(C)S(=O)(=O)N4)cc2N(C(=O)C2CC2)C[C@@H]1C [Example I-1175]
21 | > 0.5 | < 0.05 | 0.1 to 1 | CC(=O)N1c2ccc(-c3ccc4c(c3)N(C)S(=O)(=O)N4)cc2N(C(=O)C2CCC2)C[C@@H]1C [Example I-1176]
22 | > 0.5 | 0.05 to 0.5 | 0.1 to 1 | CC(=O)N1c2ccc(-c3ccc4c(c3)N(C)S(=O)(=O)N4)cc2N(C(=O)OC(C)C)C[C@@H]1C [Example I-1177]
23 | > 0.5 | 0.05 to 0.5 | 0.1 to 1 | CC(=O)N1c2ccc(-c3ccc4c(c3)CS(=O)(=O)N4)cc2N(C(=O)C2CC2)C[C@@H]1C [Example I-1178]
24 | 0.1 to 0.5 | 0.05 to 0.5 | 0.1 to 1 | CC(=O)N1c2ccc(-c3ccc4c(c3)CS(=O)(=O)N4)cc2N(C(=O)OC(C)C)C[C@@H]1C [Example I-1179]

Row | IC50 [1] [µM] | IC50 [2] [µM] | IC50 [3] [µM] | SMILES
25 | > 0.5 | 0.05 to 0.5 | 0.1 to 1 | CC(=O)N1c2ccc(-c3ccc(NS(C)(=O)=O)c(F)c3)cc2N(C(=O)C2CC2)C[C@@H]1C [Example I-1180]
26 | > 0.5 | 0.05 to 0.5 | 1 to 10 | CC(=O)N1c2ccc(-c3ccc(NS(C)(=O)=O)c(F)c3)cc2N(C(=O)C2CCC2)C[C@@H]1C [Example I-1181]
27 | > 0.5 | 0.05 to 0.5 | 0.1 to 1 | CCOC(=O)N1C[C@H](C)N(C(C)=O)c2ccc(-c3ccc(NS(C)(=O)=O)c(F)c3)cc21 [Example I-1182]
28 | 0.1 to 0.5 | < 0.05 | 0.1 to 1 | CC(=O)N1c2ccc(-c3ccc(NS(C)(=O)=O)c(F)c3)cc2N(C(=O)OC(C)C)C[C@@H]1C [Example I-1183]
29 | 0.1 to 0.5 | 0.05 to 0.5 | 0.1 to 1 | CC(=O)N1c2ccc(-c3ccc4c(c3)N(S(C)(=O)=O)CCC4)cc2N(C(=O)C2CC2)C[C@@H]1C [Example I-1184]
30 | 0.1 to 0.5 | 0.05 to 0.5 | 0.1 to 1 | CC(=O)N1c2ccc(-c3ccc4c(c3)N(S(C)(=O)=O)CCC4)cc2N(C(=O)OC(C)C)C[C@@H]1C [Example I-1185]
31 | 0.1 to 0.5 | < 0.05 | 0.1 to 1 | COc1cc(F)ccc1OC(=O)N1C[C@H](C)N(C(C)=O)c2ccc(-c3cnn(C4CC4)c3)cc21 [Example I-1186]
32 | > 0.5 | < 0.05 | 0.1 to 1 | CC(=O)N1c2ccc(-c3cnn(C4CC4)c3)cc2N(C(=O)Oc2cncc(Cl)c2)C[C@@H]1C [Example I-1187]
33 | 0.1 to 0.5 | 0.05 to 0.5 | 0.1 to 1 | CC(=O)N1c2ccc(-c3cnn(C4CC4)c3)cc2N(C(=O)Oc2cncc(F)c2)C[C@@H]1C [Example I-1189]
34 | > 0.5 | 0.05 to 0.5 | 0.1 to 1 | CC(=O)N1c2ccc(-c3cnn(C4CC4)c3)cc2N(C(=O)Oc2ccc(C)nc2C)C[C@@H]1C [Example I-1190]
35 | 0.1 to 0.5 | < 0.05 | 0.1 to 1 | CC(=O)N1c2ccc(-c3cnn(C4CC4)c3)cc2N(C(=O)Oc2cccc3ncccc23)C[C@@H]1C [Example I-1191]
36 | < 0.1 | < 0.05 | 0.1 to 1 | CC(=O)N1c2ccc(-c3cnn(C4CC4)c3)cc2N(C(=O)Oc2ccc3cnccc3c2)C[C@@H]1C [Example I-1192]
37 | 0.1 to 0.5 | 0.05 to 0.5 | 0.1 to 1 | CC(=O)N1c2ccc(-c3cnn(C4CC4)c3)cc2N(C(=O)Oc2ccc(-n3cncn3)cc2)C[C@@H]1C [Example I-1194]
38 | < 0.1 | < 0.05 | 0.1 to 1 | CC(=O)N1c2ccc(-c3cnn(C4CC4)c3)cc2N(C(=O)Oc2cccc3cccnc23)C[C@@H]1C [Example I-1195]
39 | 0.1 to 0.5 | 0.05 to 0.5 | 0.1 to 1 | CC(=O)N1c2ccc(-c3cnn(C4CC4)c3)cc2N(C(=O)Oc2ccc(Cl)c3cccnc23)C[C@@H]1C [Example I-1196]
40 | 0.1 to 0.5 | 0.05 to 0.5 | 0.1 to 1 | CC(=O)N1c2ccc(-c3cnn(C4CC4)c3)cc2N(C(=O)Oc2cc(C)ccc2F)C[C@@H]1C [Example I-1198]
41 | 0.1 to 0.5 | 0.05 to 0.5 | 0.1 to 1 | COc1ccc(OC(=O)N2C[C@H](C)N(C(C)=O)c3ccc(-c4cnn(C5CC5)c4)cc32)cn1 [Example I-1199]
42 | 0.1 to 0.5 | < 0.05 | 0.1 to 1 | COc1ccc(F)cc1OC(=O)N1C[C@H](C)N(C(C)=O)c2ccc(-c3cnn(C4CC4)c3)cc21 [Example I-1201]
43 | 0.1 to 0.5 | 0.05 to 0.5 | 0.1 to 1 | CC(=O)N1c2ccc(-c3cnn(C4CC4)c3)cc2N(C(=O)Oc2ccc3cccnc3c2)C[C@@H]1C [Example I-1202]
44 | < 0.1 | < 0.05 | 0.1 to 1 | CC(=O)N1c2ccc(-c3cnn(C4CC4)c3)cc2N(C(=O)Oc2cccc3nccnc23)C[C@@H]1C [Example I-1204]
45 | 0.1 to 0.5 | < 0.05 | 0.1 to 1 | CC(=O)N1c2ccc(-c3cnn(C4CC4)c3)cc2N(C(=O)Oc2ccc3c(c2)ncn3C)C[C@@H]1C [Example I-1205]
46 | 0.1 to 0.5 | < 0.05 | 0.1 to 1 | CC(=O)N1c2ccc(-c3cnn(C4CC4)c3)cc2N(C(=O)Oc2ccc3ccncc3c2)C[C@@H]1C [Example I-1206]
47 | > 0.5 | 0.05 to 0.5 | 0.1 to 1 | COc1ncc(Cl)cc1OC(=O)N1C[C@H](C)N(C(C)=O)c2ccc(-c3cnn(C4CC4)c3)cc21 [Example I-1207]
48 | > 0.5 | 0.05 to 0.5 | > 10 | CC(=O)N1c2ccc(-c3cnn(CCO)c3)cc2N(C(=O)N(C)C(C)C)C[C@@H]1C [Example I-1211]
